Data reported in PMC7589200, “Identification of Putative Non-Substrate-Based XT-I Inhibitors by Natural Product Library Screening” (Biomolecules, 2020).

What was measured:
XYLT2 mRNA expression = XYLT2 mRNA expression in NHDFs by qRT-PCR; assay type: cell-based, human; details: 48 h
Protocol: (§1) A former established cell culture model was utilized to investigate the effect of putative XT-I inhibitors on NHDFs. The inhibition studies were carried out with final inhibitor concentrations of 0.5, 1.0, 2.0 or 4.0 μM diluted in fully supplemented DMEM. In brief, unless otherwise stated, NHDFs were cultivated with a low density of 50 cells per mm^2 on a hard tissue culture substrate (100 × 20 mm dish) in fully supplemented DMEM with or without additional TGF-β1 (5 μg/L) for 24 h, promoting their transdifferentiation into proto-myofibroblasts. Thereafter, cells were treated with celastrol or amphotericin B in the presence or absence of TGF-β1 (5 μg/L) for an additional 48 h. Negative controls treated with solvent only were included for every sampling time. The final DMSO content of 0.04% (v/v) was kept constant in all inhibition experiments.
The RNA extraction from cell lysates and cDNA synthesis for mRNA and miRNA expression analysis were performed as described previously.
Quantitative real-time polymerase chain reaction (qRT-PCR) analysis using a LightCycler 480 Instrument II system (Roche, Basel, Swiss) was performed as previously described. The qRT-PCR experiments were conducted with three biological and three technical replicates per donor-derived primary cell culture, unless otherwise stated. The intron-spanning primer sequences used are listed in [7] and Table 1. The geometric mean of the expression levels of the housekeeping genes SDHA, RPL13A and B2M were calculated for expression normalization. The relative target gene mRNA expressions were determined by the ΔΔCT method considering the PCR efficiency. All normalized gene expression levels shown were referred to the respective target gene expression of one primary cell culture sample for the relative comparison of multiple biological samples per experiment and figures.

XT-I = target: T1, XT-I (Homo sapiens, UniProt Q86Y38); assay: Cellular (extra- and intracellular) XT-I activity of NHDFs by UPLC-ESI-MS/MS XT-I assay; assay type: cell-based; details: for extracellular XT-I activity relative to DMSO control / intracellular XT activity compared to DMSO control: then inhibitor-free media 48 h (96 h)
T1 sequence (Q86Y38 260-959 limits assumed): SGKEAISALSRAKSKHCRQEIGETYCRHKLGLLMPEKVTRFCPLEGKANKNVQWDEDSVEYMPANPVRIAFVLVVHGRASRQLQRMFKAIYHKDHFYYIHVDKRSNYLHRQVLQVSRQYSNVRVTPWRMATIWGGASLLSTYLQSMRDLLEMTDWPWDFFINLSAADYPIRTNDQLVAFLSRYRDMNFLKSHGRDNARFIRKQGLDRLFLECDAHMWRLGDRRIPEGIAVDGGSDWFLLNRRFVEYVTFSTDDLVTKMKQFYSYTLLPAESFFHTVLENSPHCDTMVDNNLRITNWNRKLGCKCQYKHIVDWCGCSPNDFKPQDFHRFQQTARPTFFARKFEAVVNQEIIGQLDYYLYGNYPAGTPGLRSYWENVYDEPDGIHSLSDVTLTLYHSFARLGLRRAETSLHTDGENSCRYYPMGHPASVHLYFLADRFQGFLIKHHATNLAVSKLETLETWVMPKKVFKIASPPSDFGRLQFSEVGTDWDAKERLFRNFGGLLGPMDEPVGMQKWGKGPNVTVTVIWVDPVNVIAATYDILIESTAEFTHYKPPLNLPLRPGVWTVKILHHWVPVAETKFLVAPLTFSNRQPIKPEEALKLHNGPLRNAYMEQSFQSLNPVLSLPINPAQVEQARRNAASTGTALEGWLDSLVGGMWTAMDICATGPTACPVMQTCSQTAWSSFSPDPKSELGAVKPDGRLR
Description: The measurement of relative XT-I activity among different samples is based on the XT-catalyzed incorporation of xylose from UDP-D-xylose on a modified bikunin-derived peptide after a fixed reaction time. The assay was originally developed for the determination of XT activity in human- or cell-culture-derived samples [13] by ultra-performance liquid chromatography/electrospray ionization tandem mass spectrometry (UPLC/ESI-MS/MS). The UPLC/ESI-MS/MS XT assay was recently modified toward a XT-I selective activity determination in human serum and cell culture samples (unpublished data). The relative intensities of the xylosylated peptide species abundance obtained with the respective m/z ratio were directly proportional to the relative XT-I activity of the sample. The XT-I activity determined is expressed in arbitrary units and normalized to the total protein content per 1 mL sample volume in cell culture approaches. A calibrator probe with a fixed amount of recombinant XT-I enzyme was included in every UPLC-MS/MS XT-I assay for assay comparability across multiple runs. The assay reaction mixture (50 μL) contained 50% (v/v) of the respective XT-I enzyme solution and 50% (v/v) reaction buffer. The final XT-I assay contained 25 mM MES buffer (pH 6.5), 25 mM KF buffer, 5 mM MnCl2, 5 mM MgCl2, 7.0 μM modified acceptor peptide and 30 μM UDP-D-xylose. The sample preparation for UPLC/ESI-MS/MS was performed according to [13]. In brief, after sample incubation at 37 °C for 24 h, the reaction was stopped by heating at 99 °C for 10 min. After centrifugation (10,000× g, 10 min) the supernatant was diluted fivefold with UPLC water for analysis. All cell-based XT-I assays were carried out in three biological and three technical replicates per donor-derived primary cell culture, while the XT-I activity determination for screening or kinetic purposes was carried out at least in technical duplicates.
as §1
The cell culture supernatant was collected to analyze the extracellular XT-I activity, whereas the same cell culture monolayer was lysed using a fixed amount of 0.75 mL Nonidet P-40 (NP-40)-buffer (50 mM TRIS, 150 mM NaCl, 1% NP-40, pH 7.8) for the analysis of intracellular XT-I activities. After sample centrifugation (10,000× g, 10 min, 4 °C), the supernatant contained the intracellular XT-I protein. The lysates were also used for the BCA assay. The cellular XT-I activities were measured 48 h after inhibitor treatment (48 h) or an additional 48 h after inhibitor removal (96 h).

[1] = 2.0 μM with TGF-β1 (5 μg/L) 48 h
[2] = 1.0 μM with TGF-β1 (5 μg/L) 48 h

C[C@@H]1[C@H](O)[C@@H](C)/C=C/C=C/C=C/C=C/C=C/C=C/C=C/[C@H](O[C@@H]2O[C@H](C)[C@@H](O)[C@H](N)[C@@H]2O)C[C@@H]2O[C@](O)(C[C@@H](O)C[C@@H](O)[C@H](O)CC[C@@H](O)C[C@@H](O)CC(=O)O[C@H]1C)C[C@H](O)[C@H]2C(=O)O [Compound 17, Amphotericin B] was tested, and the “XYLT2 mRNA expression level” value (XYLT2 mRNA expression; 2.0 μM with TGF-β1 (5 μg/L), versus TGF-β1 only) was “did not differ”, the “extracellular XT-I activity relative to DMSO control” value (XT-I; [1]) was 0.6 ± 0.03 fold and the “intracellular XT activity compared to DMSO control” value (XT-I; [1]) was “did not result in any detectable changes”.
With CC1=C(O)C(=O)C=C2C1=CC=C1[C@@]2(C)CC[C@@]2(C)[C@@H]3C[C@](C)(C(=O)O)CC[C@]3(C)CC[C@]12C [Compound 68, Celastrol] the “XYLT2 mRNA expression level” value (XYLT2 mRNA expression; 1.0 μM in the presence of TGF-β1 (5 μg/L)) was “did not alter”, the “extracellular XT-I activity relative to untreated cells” value (XT-I; 0.5 μM, 48 h, inhibitor still present in supernatant (Figure S3)) was 0.8 ± 0.07 fold and the “extracellular XT-I activity relative to DMSO control” value (XT-I; [2]) was 0.9 ± 0.06 fold. The “intracellular XT activity compared to DMSO control” value (XT-I; [2]) was “did not result in any detectable changes” and the “intracellular XT activity” value (XT-I; inhibitor present 48 h (Figure S3 setup, 0.5 μM)) was “No intracellular XT activity changes were observed”.
